Laboratory results reported in patent US20250100996A1, “HETEROCYCLOALKYL AND HETEROARYL COMPOUNDS AND PHARMACEUTICAL COMPOSITIONS THAT MODULATE IKZF2” (Plexium, Inc., priority 2021, published 2025).

Tests used:
[1] = target: T1, human E3 ligase component cereblon (CRBN) (Homo sapiens, UniProt Q96SW2); assay: Cereblon (CRBN) target engagement, NanoBRET TE Intracellular E3 Ligase Assay in transfected HEK-293T cells; conditions: read-out: CRBN Binding EC50
T1 construct: host or cells: HEK293T
Procedure, shortened: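 HEK-293T cells transiently co-transfected with NanoLuc-CRBN (N-terminal NanoLuc) and DDB1 were dosed with CRBN tracer and an 11-point compound series (typically 10 μM to 100 pM) for 2 h at 37° C. BRET at 450/610 nm gave IC50 by four-parameter logistic fit.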

IKZF1 (Ikaros) = target: T2, IKZF1 (Ikaros) (Homo sapiens, UniProt Q13422); assay: IKZF1 reporter degradation assay (HEK 293T IKZF1-mNeonGreen reporter cell line); format: cell-based; conditions: HEK 293T IKZF1-mNeonGreen reporter, 24 hours incubation
T2 construct: mScarlet (behind P2A) (C, cleaved yes); expressed in transfected cells
Text: Polycistronic plasmids were constructed for the mammalian expression of fluorescent reporter fusions of human transcription factors IKZF1 (Ikaros), IKZF2 (Helios), and IKZF3 (Aiolos). The respective protein sequences had their C-terminal end joined to a GGGGS linker repeated three times followed by mNeonGreen, P2A sequence, and mScarlet. The DNA sequences of the open reading frames are as follows:
IKZF1, IKZF2, and IKZF3 constructs were cloned into the UCOE Hygromycin expression vectors (Millipore Sigma). Reporter constructs were transfected using cationic lipid reagents into adherent HEK 293T cells and stable integrants were selected by treatment with 200 μg/mL hygromycin B. Clonal populations were obtained from the population of stable integrants either by limiting dilution or fluorescence activated cell sorting.
The clonal stable cell lines were maintained under constant 200 μg/mL hygromycin B selection while being passaged for use in the degradation assays. […] The fluorescence intensity of the IKZF1/2/3-mNeonGreen (FITC channel) and mScarlet (PE channel) reporters were routinely analyzed by flow cytometry to confirm consistent expression levels between experiments.
The IKZF1/IKZF2/IKZF3 degradation assays were carried out by harvesting the HEK 293T reporter cell lines and resuspending the cells in media formulated for reduced background fluorescence (FluoroBrite; Thermo Fisher). The respective cell lines were seeded at a density of 4000 cells/well into black-walled 384-well optical grade assay tissue culture plates. The cells were incubated overnight at 37° C. to allow for attachment to the assay plate. Dilutions of the compounds were prepared in DMSO from 10 mM compound stocks. The assay plates were treated with appropriate concentrations of the compounds by dispensing the DMSO dilutions in quadruplicate wells with an upper limit of 0.5% final DMSO.
After 24 hours incubation with the compounds, the assay plates were imaged on an ImageXpress Pico microscopy system (cells maintained at 37° C. during imaging) to obtain the fluorescent readouts. The assay plates were imaged in the FITC and Tetramethylrhodamine (TRITC) channels to obtain the mNeonGreen fluorescence intensity (reporter degradation data) and mScarlet fluorescence intensity (for cell segmentation). 293T-IKZF1 and 293T-IKZF3 reporter cell lines were imaged with exposures of 500 milliseconds (ms) for both FITC and TRITC channels, while the 293T-IKZF2 reporter cell line was imaged with exposures of 1000 ms for FITC and 1250 ms for TRITC. The resulting data was analyzed with Cell Reporter Xpress software using the 2-channel cell scoring analysis with a “percent positive” readout. The TRITC channel was selected for the “nuclei” segmentation with a threshold of 20 while the FITC channel was selected for the “Marker 1” segmentation and a threshold of 100 for the IKZF1 and IKZF3 reporter lines. […] The minimum segmentation width was set to 6 micrometers and the maximum segmentation width was set to 15 micrometers for all cell lines. The DC50 calculations were determined by regression to best fit four-parameter logistic curves using GraphPad Prism.

IKZF2 (Helios) [2] = target: T3, IKZF2 (Helios) (Homo sapiens, UniProt Q9UKS7); assay: IKZF2 reporter degradation assay (HEK 293T IKZF2-mNeonGreen reporter cell line); format: cell-based; conditions: HEK 293T IKZF2-mNeonGreen reporter, 24 hours incubation
T3 construct: Leu-Asp junction (codons ctcgac before the linker); mScarlet (behind P2A) (C, cleaved yes); expressed in transfected cells
Procedure, shortened: (§1)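 Clonal HEK 293T lines stably expressing the IKZF-(GGGGS)3-mNeonGreen-P2A-mScarlet reporter were treated with compound for 24 h at 37 °C (≤0.5% DMSO, quadruplicate). Live imaging scored percent mNeonGreen-positive cells, with mScarlet used for segmentation. DC50 came from four-parameter logistic fits.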

IKZF3 (Aiolos) = target: T4, IKZF3 (Aiolos) (Homo sapiens, UniProt Q9UKT9); assay: IKZF3 reporter degradation assay (HEK 293T IKZF3-mNeonGreen reporter cell line); format: cell-based; conditions: HEK 293T IKZF3-mNeonGreen reporter, 24 hours incubation
T4 construct: Leu-Asp junction (codons ctcgac before the linker); mScarlet (behind P2A) (C, cleaved yes); expressed in transfected cells
Procedure, shortened: as §1

IKZF2 (Helios) [3] = target: T5, IKZF2 (Helios) (Homo sapiens, UniProt Q96SW2+Q9UKS7); assay: IKZF2 reporter degradation assay (HEK 293T IKZF2-mNeonGreen reporter cell line); format: cell-based; conditions: @ 1 μM, HEK 293T IKZF2-mNeonGreen reporter, 24 hours incubation; for inhibition at 1 µM: HEK-293T, 24 h
T5 construct: Leu-Asp junction (codons ctcgac before the linker); mScarlet (behind P2A) (C, cleaved yes); expressed in transfected cells
Procedure, shortened: as §1

T1 sequence (Q96SW2 whole entry): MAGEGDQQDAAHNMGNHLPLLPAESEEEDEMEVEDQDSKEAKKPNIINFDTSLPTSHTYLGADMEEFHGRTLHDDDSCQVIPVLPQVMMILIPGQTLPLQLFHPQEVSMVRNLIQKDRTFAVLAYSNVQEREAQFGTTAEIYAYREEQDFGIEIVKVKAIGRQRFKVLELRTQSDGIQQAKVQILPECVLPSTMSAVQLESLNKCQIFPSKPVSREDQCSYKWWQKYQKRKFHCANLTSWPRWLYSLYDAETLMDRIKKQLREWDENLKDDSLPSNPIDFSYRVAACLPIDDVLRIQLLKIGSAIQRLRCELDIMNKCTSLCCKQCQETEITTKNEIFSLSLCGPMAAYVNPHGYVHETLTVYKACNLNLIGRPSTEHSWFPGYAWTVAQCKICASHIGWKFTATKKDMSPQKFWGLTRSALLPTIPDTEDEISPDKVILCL
T1 sequence (Q16531 whole entry partner): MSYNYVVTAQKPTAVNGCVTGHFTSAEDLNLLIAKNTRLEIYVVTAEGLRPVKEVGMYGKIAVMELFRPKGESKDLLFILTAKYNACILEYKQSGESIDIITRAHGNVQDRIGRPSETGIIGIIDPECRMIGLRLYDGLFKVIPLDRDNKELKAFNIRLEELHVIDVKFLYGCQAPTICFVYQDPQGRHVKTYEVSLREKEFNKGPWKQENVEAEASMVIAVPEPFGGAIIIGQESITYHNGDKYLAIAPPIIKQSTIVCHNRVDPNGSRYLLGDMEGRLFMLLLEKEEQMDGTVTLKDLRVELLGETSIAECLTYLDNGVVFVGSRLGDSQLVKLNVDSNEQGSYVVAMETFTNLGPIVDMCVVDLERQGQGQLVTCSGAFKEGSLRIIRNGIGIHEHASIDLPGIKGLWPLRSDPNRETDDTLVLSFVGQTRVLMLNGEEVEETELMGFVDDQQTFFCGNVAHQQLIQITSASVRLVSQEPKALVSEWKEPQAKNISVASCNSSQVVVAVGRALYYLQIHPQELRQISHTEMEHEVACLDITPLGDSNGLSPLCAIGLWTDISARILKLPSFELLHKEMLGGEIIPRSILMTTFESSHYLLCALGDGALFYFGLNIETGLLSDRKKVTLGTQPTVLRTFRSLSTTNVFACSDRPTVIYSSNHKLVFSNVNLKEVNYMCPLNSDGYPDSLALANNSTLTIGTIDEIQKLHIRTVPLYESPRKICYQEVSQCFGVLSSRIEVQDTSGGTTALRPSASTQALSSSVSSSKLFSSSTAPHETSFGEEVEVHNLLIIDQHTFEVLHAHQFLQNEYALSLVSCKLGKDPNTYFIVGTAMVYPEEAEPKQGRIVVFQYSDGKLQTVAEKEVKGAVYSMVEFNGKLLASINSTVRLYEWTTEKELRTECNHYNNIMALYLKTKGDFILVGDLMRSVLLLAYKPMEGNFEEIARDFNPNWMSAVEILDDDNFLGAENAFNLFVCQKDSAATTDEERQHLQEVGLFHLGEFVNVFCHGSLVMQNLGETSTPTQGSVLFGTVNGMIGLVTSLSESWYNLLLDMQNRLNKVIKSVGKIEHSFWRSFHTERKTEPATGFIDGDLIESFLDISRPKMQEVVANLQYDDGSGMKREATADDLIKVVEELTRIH
T2 sequence (Q96SW2 whole entry partner): as the sequence (Q96SW2 whole entry) above
T2 sequence (Q16531 whole entry partner): as the sequence (Q16531 whole entry partner) above
T2 sequence (Q13422 whole entry): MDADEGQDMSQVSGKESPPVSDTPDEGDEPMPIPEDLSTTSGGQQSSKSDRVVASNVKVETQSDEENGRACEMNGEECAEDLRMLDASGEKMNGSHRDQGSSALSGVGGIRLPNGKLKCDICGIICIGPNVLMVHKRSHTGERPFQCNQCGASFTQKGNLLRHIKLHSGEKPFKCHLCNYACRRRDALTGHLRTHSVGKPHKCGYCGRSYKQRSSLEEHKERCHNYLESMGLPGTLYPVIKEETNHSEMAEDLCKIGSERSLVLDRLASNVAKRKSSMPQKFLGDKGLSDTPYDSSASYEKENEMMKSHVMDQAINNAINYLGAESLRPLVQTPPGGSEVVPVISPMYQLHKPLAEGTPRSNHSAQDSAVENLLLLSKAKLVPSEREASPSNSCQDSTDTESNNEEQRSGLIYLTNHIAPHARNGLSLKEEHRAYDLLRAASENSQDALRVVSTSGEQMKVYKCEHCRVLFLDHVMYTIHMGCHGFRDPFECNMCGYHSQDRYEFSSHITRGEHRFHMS
T4 sequence (Q96SW2 whole entry partner): as the sequence (Q96SW2 whole entry) above
T4 sequence (Q16531 whole entry partner): as the sequence (Q16531 whole entry partner) above
T4 sequence (Q9UKT9 whole entry): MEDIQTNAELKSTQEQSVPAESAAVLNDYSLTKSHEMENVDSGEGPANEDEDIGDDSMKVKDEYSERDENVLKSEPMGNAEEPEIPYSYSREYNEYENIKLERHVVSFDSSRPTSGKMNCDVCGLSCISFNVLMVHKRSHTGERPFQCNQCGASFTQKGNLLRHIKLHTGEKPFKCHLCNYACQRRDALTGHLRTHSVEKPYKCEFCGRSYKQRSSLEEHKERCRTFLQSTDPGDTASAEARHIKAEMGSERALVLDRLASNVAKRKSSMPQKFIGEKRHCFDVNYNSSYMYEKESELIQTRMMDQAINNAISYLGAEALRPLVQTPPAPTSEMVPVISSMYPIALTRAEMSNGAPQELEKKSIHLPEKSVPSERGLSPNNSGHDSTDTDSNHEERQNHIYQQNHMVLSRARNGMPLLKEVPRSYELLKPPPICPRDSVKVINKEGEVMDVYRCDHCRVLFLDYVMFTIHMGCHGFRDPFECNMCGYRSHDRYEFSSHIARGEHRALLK
T3 sequence (Q9UKS7 whole entry): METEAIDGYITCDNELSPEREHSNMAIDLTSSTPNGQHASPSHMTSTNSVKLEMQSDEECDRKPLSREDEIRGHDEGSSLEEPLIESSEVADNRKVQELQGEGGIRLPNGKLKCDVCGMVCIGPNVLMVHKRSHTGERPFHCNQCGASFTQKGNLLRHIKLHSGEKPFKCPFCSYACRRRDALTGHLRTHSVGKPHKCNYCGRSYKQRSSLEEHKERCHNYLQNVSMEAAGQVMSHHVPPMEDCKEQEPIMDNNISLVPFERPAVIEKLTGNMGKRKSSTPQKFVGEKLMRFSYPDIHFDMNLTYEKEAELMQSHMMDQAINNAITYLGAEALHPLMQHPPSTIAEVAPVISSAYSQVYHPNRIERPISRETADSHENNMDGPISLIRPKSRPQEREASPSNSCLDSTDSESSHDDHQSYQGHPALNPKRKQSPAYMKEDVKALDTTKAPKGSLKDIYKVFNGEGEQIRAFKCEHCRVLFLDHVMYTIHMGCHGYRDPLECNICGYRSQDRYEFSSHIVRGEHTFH
T3 sequence (Q96SW2 whole entry, further chain): as the sequence (Q96SW2 whole entry) above
T3 sequence (Q16531 whole entry partner): as the sequence (Q16531 whole entry partner) above
T5 sequence (Q9UKS7 whole entry): as the sequence (Q9UKS7 whole entry) above
T5 sequence (Q96SW2 whole entry): as the sequence (Q96SW2 whole entry) above
T5 sequence (Q16531 whole entry partner): as the sequence (Q16531 whole entry partner) above

| Compound | EC50 [1] | DC50 (IKZF1 (Ikaros)) | DC50 (IKZF2 (Helios) [2]) | DC50 (IKZF3 (Aiolos)) | IKZF2 % Degradation @ 1 μM (IKZF2 (Helios) [3]) | inhibition at 1 µM (IKZF2 (Helios) [3]) |
| --- | --- | --- | --- | --- | --- | --- |
| O=C1CCC(N2Cc3cc(O[C@H]4CCCC4N4CC(c5ccnc6ccccc56)C4)ccc3C2=O)C(=O)N1 (mixture of isomers) [Compound 195-B, Rac-3-(1-oxo-5-(((trans)-2-(3-(quinolin-4-yl)azetidin-1-yl)cyclopentyl)oxy)isoindolin-2-yl)piperidine-2,6-dione] | 24 nM | > 30000 nM | > 30000 nM | > 30000 nM | – | – |
| O=C1CCC(N2Cc3cc(O[C@H]4CCCC[C@@H]4N4CC(c5cncc(Cl)c5)C4)ccc3C2=O)C(=O)N1 (mixture of isomers) [Compound 168-B, Rac-3-(5-(((trans)-2-(3-(5-chloropyridin-3-yl)azetidin-1-yl)cyclohexyl)oxy)-1-oxoisoindolin-2-yl)piperidine-2,6-dione] | 48 nM | > 30000 nM | > 30000 nM | > 30000 nM | – | – |
| O=C1NC(=O)C2(N3Cc4cc(O[C@H]5CCCC[C@@H]5N5CC(c6ncc(Cl)cn6)C5)ccc4C3=O)CC1C2 (racemic) [Compound 172-B, Rac-1-(5-(((trans)-2-(3-(5-chloropyrimidin-2-yl)azetidin-1-yl)cyclohexyl)oxy)-1-oxoisoindolin-2-yl)-3-azabicyclo[3.1.1]heptane-2,4-dione] | > 10000 nM | > 30000 nM | > 30000 nM | > 30000 nM | – | – |
| O=C1NC(=O)C2(N3Cc4cc(O[C@@H]5CCCC[C@@H]5N5CC(c6ncc(Cl)cn6)C5)ccc4C3=O)CC1C2 (racemic) [Compound 171-B, Rac-1-(5-(((cis)-2-(3-(5-chloropyrimidin-2-yl)azetidin-1-yl)cyclohexyl)oxy)-1-oxoisoindolin-2-yl)-3-azabicyclo[3.1.1]heptane-2,4-dione] | > 10000 nM | ≥ 30000 nM | > 30000 nM | > 30000 nM | – | – |
| O=C1CCC(N2Cc3cc(O[C@H]4CCCC[C@@H]4N4CC(c5ccc(C(F)(F)F)nc5)C4)ccc3C2=O)C(=O)N1 (mixture of isomers) [Compound 191-B, Rac-3-(1-oxo-5-(((trans)-2-(3-(6-(trifluoromethyl)pyridin-3-yl)azetidin-1-yl)cyclohexyl)oxy)isoindolin-2-yl)piperidine-2,6-dione] | 31 nM | > 30000 nM | > 30000 nM | > 30000 nM | – | – |
| O=C1CCC(N2Cc3cc(O[C@H]4CCCC[C@@H]4N4CC(c5cc(Cl)ccn5)C4)ccc3C2=O)C(=O)N1 (mixture of isomers) [Compound 166-B, Rac-3-(5-(((trans)-2-(3-(4-chloropyridin-2-yl)azetidin-1-yl)cyclohexyl)oxy)-1-oxoisoindolin-2-yl)piperidine-2,6-dione] | 31 nM | > 30000 nM | > 30000 nM | > 30000 nM | – | – |
| O=C1CCC(N2Cc3cc(O[C@H]4CCCC[C@@H]4N4CC(c5ncc(C6CC6)cn5)C4)ccc3C2=O)C(=O)N1 (single isomer, unassigned) [Compound 135-B] | 3 nM | – | 13 nM | > 30000 nM | 77.7% | – |
| O=C1CCC(N2Cc3cc(O[C@H]4CCCC[C@@H]4N4CC(C5CCN(C6CCC6)CC5)C4)ccc3C2=O)C(=O)N1 (stereo partly drawn) [Compound 56-A, 3-(5-(((1S,2S)-2-(3-(1-cyclobutylpiperidin-4-yl)azetidin-1-yl)cyclohexyl)oxy)-1-oxoisoindolin-2-yl)piperidine-2,6-dione] | 50 nM | – | 30 nM | > 30000 nM | – | 60.8% |
| O=C1CCC(N2Cc3cc(O[C@H]4CCCC[C@@H]4N4CC(c5ncc(C(F)(F)F)cn5)C4)ccc3C2=O)C(=O)N1 (single isomer, unassigned) [Compound 123-B] | 1 nM | – | 0.1 nM | > 30000 nM | 69.6% | – |
| O=C1CCC(N2Cc3cc(O[C@H]4CCCC[C@@H]4N4CC(c5ncc(Br)cn5)C4)ccc3C2=O)C(=O)N1 (single isomer, unassigned) [Compound 108-B] | 6 nM | – | 6 nM | > 30000 nM | – | 74.6% |
| O=C1CCC(N2Cc3cc(O[C@H]4CCCC[C@@H]4N4CC(c5ccncc5F)C4)ccc3C2=O)C(=O)N1 (single isomer, unassigned) [Compound 103-B] | 59 nM | – | 18 nM | > 30000 nM | 69.9% | – |
| O=C1CCC(N2Cc3cc(O[C@H]4CCCC[C@@H]4N4CC(C5CCN(C(=O)c6ccccc6)CC5)C4)ccc3C2=O)C(=O)N1 (stereo partly drawn) [Compound 24-A, 3-(5-{[(1S,2S)-2-[3-(1-benzoylpiperidin-4-yl)azetidin-1-yl]cyclohexyl]oxy}-1-oxo-2,3-dihydro-1H-isoindol-2-yl)piperidine-2,6-dione] | 13 nM | – | 6 nM | > 30000 nM | – | 76.7% |
| CC(C)(C)OC(=O)N1CCC(C2CN([C@H]3CCCC[C@@H]3Oc3ccc4c(c3)CN(C3CCC(=O)NC3=O)C4=O)C2)CC1 (stereo partly drawn) [Compound 26-A, tert-butyl 4-(1-((1S,2S)-2-((2-(2,6-dioxopiperidin-3-yl)-1-oxoisoindolin-5-yl)oxy)cyclohexyl)azetidin-3-yl)piperidine-1-carboxylate] | 1 nM | – | 1 nM | > 30000 nM | – | 74.7% |
| O=C1CCC(N2Cc3cc(O[C@H]4CCCC[C@@H]4N4CC(c5ncc(Cl)cn5)C4)ccc3C2=O)C(=O)N1 (single isomer, unassigned) [Compound 111-B] | 7 nM | – | 4 nM | > 30000 nM | – | 76% |
| O=C1CCC(N2Cc3cc(O[C@@H]4CCCC[C@H]4N4CC(c5ccc(C(F)(F)F)cn5)C4)ccc3C2=O)C(=O)N1 (single isomer, unassigned) [Compound 128-B] | 11 nM | – | 18 nM | > 30000 nM | – | 24.2% |
| O=C1CCC(N2Cc3cc(O[C@H]4CCCC[C@@H]4N4CC(c5ccc6ccccc6n5)C4)ccc3C2=O)C(=O)N1 (single isomer, unassigned) [Compound 90-B] | 6 nM | – | 1 nM | > 30000 nM | 87.1% | – |
| O=C1CCC(N2Cc3cc(O[C@H]4CCCC[C@@H]4N4CC(c5ncc(Br)cn5)C4)ccc3C2=O)C(=O)N1 (mixture of isomers) [Compound 137-B, Rac-3-(5-(((trans)-2-(3-(5-bromopyrimidin-2-yl)azetidin-1-yl)cyclohexyl)oxy)-1-oxoisoindolin-2-yl)piperidine-2,6-dione] | 38 nM | – | 49 nM | > 30000 nM | – | 59.3% |
| CC1(C(=O)N2CCC(C3CN([C@H]4CCCC[C@@H]4Oc4ccc5c(c4)CN(C4CCC(=O)NC4=O)C5=O)C3)CC2)CCC1 (stereo partly drawn) [Compound 25-A, 3-(5-(((1S,2S)-2-(3-(1-(1-methylcyclobutane-1-carbonyl)piperidin-4-yl)azetidin-1-yl)cyclohexyl)oxy)-1-oxoisoindolin-2-yl)piperidine-2,6-dione] | 4 nM | – | 1 nM | > 30000 nM | – | 84.4% |
